Experimental findings from patent US20230406829A1, “Heterocyclic Compound and Preparation Method and Use Thereof” (SYNTRON (JIANGSU) PHARMACEUTICAL TECHNOLOGY CO., LTD., priority 2020, published 2023) are described below.

Broadly, the Kd is the equilibrium constant for the complex coming apart. A lower Kd goes with a tighter complex. The IC50 is the point on the concentration scale where inhibition reaches its midpoint.

T2 sequence (Q9H7M9 with tags, fused parts or gaps limits assumed): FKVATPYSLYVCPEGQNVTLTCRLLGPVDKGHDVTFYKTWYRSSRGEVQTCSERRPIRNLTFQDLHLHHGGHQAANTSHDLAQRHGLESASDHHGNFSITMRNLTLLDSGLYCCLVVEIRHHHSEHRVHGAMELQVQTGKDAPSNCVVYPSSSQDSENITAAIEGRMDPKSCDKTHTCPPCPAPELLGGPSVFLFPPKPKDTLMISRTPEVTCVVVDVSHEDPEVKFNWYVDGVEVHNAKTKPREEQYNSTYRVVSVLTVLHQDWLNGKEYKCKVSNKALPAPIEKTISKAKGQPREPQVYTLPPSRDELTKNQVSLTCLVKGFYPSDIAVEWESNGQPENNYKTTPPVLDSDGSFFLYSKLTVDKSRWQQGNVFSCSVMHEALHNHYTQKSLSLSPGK

One experiment addresses T1, VISTA protein modified by glycosylation (Homo sapiens, UniProt Q9H7M9).
T1 sequence (Q9H7M9 33-311): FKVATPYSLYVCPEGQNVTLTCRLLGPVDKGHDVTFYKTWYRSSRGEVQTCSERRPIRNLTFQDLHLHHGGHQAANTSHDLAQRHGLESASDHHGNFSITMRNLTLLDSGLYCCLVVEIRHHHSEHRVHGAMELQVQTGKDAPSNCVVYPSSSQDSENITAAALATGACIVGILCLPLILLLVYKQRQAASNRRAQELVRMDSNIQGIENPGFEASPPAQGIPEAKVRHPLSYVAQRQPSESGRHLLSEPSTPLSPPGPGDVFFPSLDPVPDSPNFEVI
Put plainly: Binding ability of compounds to VISTA protein (Biacore S200, CM5 chip). The note with it: compound diluted in 1.05*PBS-P, fitted. An excerpt: Ability ability of compounds to VISTA protein • (I) Experimental Equipment and Reagents • 1. The machine model used in this experiment is: Biacore S200. • 2. S-series CM5 chip. […] Goods number: BR-1000-50, the purchase place is GE Healthcare. • 4.
Background: In SPR one partner is held on a chip, and binding of the other changes the refractive index at the surface.
Regarding `CC(=O)NCCNCc1cccc(-c2nc3c(C)c(-c4ccccc4)ccc3[nH]2)c1` [Compound 1], the Kd is 153 nM. Same read-out and setting: with `CC(=O)NCCNCc1ccc(-c2nc3ccc(-c4ccccc4)c(C)c3[nH]2)cc1` [Compound 10] the figure was 338 nM.

`Cc1c(-c2ccccc2)ccc2nc(-c3cccc(CNCCN)c3)[nH]c12` [Compound 7] showed a dissociation constant (Kd) of 461 nM.

The next experiment has as its target T2, recombinant human VISTA protein (Homo sapiens, UniProt Q9H7M9).
T2 construct: purchased R & D Systems 7126-B7
Kind of experiment: Inhibition of VISTA interaction: rescue of IFN-γ release in human PBMC (ELISA). The class given is cell-based. The note with it: 72 h, read-out: IC50 (VISTA interaction inhibitory activity). As for the experimental part: • 2. Determination of the inhibition effect of the compounds against VISTA interaction: • (1) Experimental Equipment and Reagents • 1. […] SpectraMax i3X Multifunction microplate reader (Molecular Device) • 3. […] Experimental procedure: • 1.1 Recombinant human VISTA (2.5 μg/ml) and anti-human CD3 antibody (2.5 μg/ml) were added to 96-well plates and stored in 4 C overnight. • 1.2 The next day, the anti-human VISTA antibody was added to the co-incubation for 30 min. Thereafter, cells were washed with 1*PBS and test compounds were added for 30 min. […] At 37 C, 5% CO2Below the conditions, the incubation was continued for 72 h. • 1.3 After separation by centrifugation at 4 C, 200 g*5 min, the supernatant was collected.
A general note: ELISA stands for enzyme-linked immunosorbent assay.
Regarding `CC(=O)NCCNCc1cccc(-c2nc3c4c(ccc3[nH]2)OCCO4)c1` [Compound 61], the IC50 lay in the range of 100 to 1000 nM. Turning to `COc1ccc2[nH]c(-c3cccc(CNCCNC(C)=O)c3)nc2c1` [Compound 35], the IC50 was 100 to 1000 nM. The same measure, in the same setting: with `Cc1c(-c2ccccc2)ccc2[nH]c(-c3cccc(CN4CCCC[C@H]4C(=O)O)c3)nc12` [Compound 4] the figure was 1 to 100 nM; with `Cc1c(-c2ccccc2)ccc2nc(-c3ccc(CNCCO)cc3)cn12` [Compound 25], 100 to 1000 nM; with `Cc1c(-c2ccccc2)ccc2[nH]c(-c3cccc(OCc4cccnc4)c3)nc12` [Compound 21], 100 to 1000 nM.

As to `Cc1c(-c2ccccc2)ccc2[nH]c(-c3cccc(CN4CC[C@@H](O)C4)c3)nc12` [Compound 8], the IC50 lay in the range of 100 to 1000 nM. Same read-out and setting: as for `CC(=O)NCCNCc1cccc(-c2nc3cc(OCc4ccccc4)ccc3[nH]2)c1` [Compound 63], the figure is 100 to 1000 nM; as for `Cc1c(-c2ccccc2)ccc2[nH]c(-c3ccc(CNC[C@@H](O)CC(=O)O)cc3)nc12` [Compound 15], 1 to 100 nM. Same read-out and setting: as for `CC(=O)NCCNCc1cccc(C2=NC3C=CC(c4ccccc4)=C(C)C3S2)c1` (centres unmarked) [Compound 53], the figure is 100 to 1000 nM; as for `CC(=O)NCCNCc1cccc(-c2nc3cc(-c4ccco4)ccc3[nH]2)c1` [Compound 62], 100 to 1000 nM. Consider `COc1cc(-c2nc3c(C)c(-c4ccccc4)ccc3[nH]2)ccc1CNC[C@@H]1CCC(=O)N1` [Compound 24], for which the IC50 lay within 1 to 100 nM. The same measure, in the same setting: with `CC(=O)NCCNCc1cccc(-c2cc3ccccn3c2)c1` [Compound 43] the figure was 100 to 1000 nM; with `COc1cc(-c2nc3c(C)c(-c4ccccc4)ccc3[nH]2)ccc1CN1CC[C@@H](O)C1` [Compound 23], 1 to 100 nM. For `Cc1c(-c2ccccc2)ccc2[nH]c(-c3cccc(S(=O)(=O)NCCO)c3)nc12` [Compound 41], the IC50 lay in the range of 100 to 1000 nM. Turning to `CC(=O)NCCNCc1cccc(-c2nc3cc(C#N)ccc3[nH]2)c1` [Compound 64], the half-maximal inhibitory concentration (IC50) lay within 1 to 100 nM. Still for that read-out and setting: as for `CC(=O)NCCNCc1cccc(-c2nc3c(Br)c(-c4ccccc4)ccc3[nH]2)c1` [Compound 16], the figure is 1 to 100 nM; as for `CC(=O)NCCNCc1cccc(-c2nc3c(C#N)c(-c4ccccc4)ccc3[nH]2)c1` [Compound 57], 1 to 100 nM; as for `CC(=O)NCCNCc1cccc(-c2nc3c(C(F)(F)F)c(-c4ccccc4)ccc3[nH]2)c1` [Compound 37], 100 to 1000 nM. Still for that read-out and setting: as for `COc1c(-c2ccccc2)ccc2[nH]c(-c3cccc(CNCCNC(C)=O)c3)nc12` [Compound 55], the figure is 1 to 100 nM; as for `Cc1c(-c2ccccc2)ccc2[nH]c(-c3cccc(C(=O)NCCO)c3)nc12` [Compound 38], 1 to 100 nM; as for `CC(=O)NCCNCc1cccc(-c2nc3c(C)c(-c4ccccc4)ccc3[nH]2)c1` [Compound 1], 1 to 100 nM. On the same count and under the same terms, as for `Cc1c(-c2ccccc2)ccc2[nH]c(-c3cccc(OCc4ccccc4)c3)nc12` [Compound 20], the figure is 1 to 100 nM; as for `CC(=O)NCCNCc1cccc(-c2cc3c(C)c(-c4ccccc4)ccn3c2)c1` [Compound 44], 100 to 1000 nM. For the compound `CC(=O)NCCNCc1cccc(-c2nc3ccccc3[nH]2)c1` [Compound 29], the IC50 was 1 to 100 nM. On the same count and under the same terms, as for `CCCOC(=O)c1cccc(-c2nc3c(C)c(-c4ccccc4)ccc3[nH]2)c1` [Compound 42], the figure is 100 to 1000 nM; as for `CC(=O)NCCNCc1cccc(-c2nc3cc(-c4ccccc4)ccc3[nH]2)c1` [Compound 32], 1 to 100 nM. In the case of `CC(=O)NCCNCc1cccc(-c2cn3ncc(-c4ccccc4)c(C)c3n2)c1` [Compound 48], the IC50 is 100 to 1000 nM. The same measure, in the same setting: as for `CC(=O)NCCNCc1cccc(-c2nc3c(O)c(-c4ccccc4)ccc3[nH]2)c1` [Compound 54], the figure is 100 to 1000 nM.

As to `Cc1c(-c2ccccc2)ccc2[nH]c(-c3cccc(CN[C@H](CO)C(=O)O)c3)nc12` [Compound 5], the 50% inhibitory concentration (IC50) fell in the range of 1 to 100 nM. The same measure, in the same setting: with `CC(=O)NCCNCc1cccc(C2=NC3C=CC(c4ccccc4)=C(C)C3O2)c1` (centres unmarked) [Compound 52] the figure was 100 to 1000 nM; with `CC(=O)NCCNCc1ccc(-c2cn3c(C)c(-c4ccccc4)ccc3n2)cc1` [Compound 26], 100 to 1000 nM. The same measure, in the same setting: with `Cc1c(-c2ccccc2)ccc2[nH]c(-c3cccc(OCCNCCO)c3)nc12` [Compound 39] the figure was 100 to 1000 nM; with `CC(=O)NCCNCc1ccc(-c2nc3ccc(-c4ccccc4)c(C)c3[nH]2)cc1` [Compound 10], 100 to 1000 nM; with `CC(=O)NCCNCc1cccc(C2=CC3C=CC(c4ccccc4)=NC3O2)c1` (centres unmarked) [Compound 51], 100 to 1000 nM.

For `Cc1c(-c2ccccc2)ccc2[nH]c(-c3ccc(CNCC(=O)O)cc3)nc12` [Compound 11], the IC50 lay within 1 to 100 nM.

As for `Cc1c(-c2ccccc2)ccc2[nH]c(-c3cccc(C(=O)O)c3)nc12` [Compound 31], the IC50 lay in the range of 1 to 100 nM. Consider `CC(=O)NCCNCc1cccc(-c2nc3c(C)c(-c4ccc5c(c4)OCCO5)ccc3[nH]2)c1` [Compound 18], for which the IC50 was 1 to 100 nM. Same read-out and setting: with `Cc1c(-c2ccccc2)ccc2nc(-c3cccc(CNCC(=O)O)c3)[nH]c12` [Compound 2] the figure was 100 to 1000 nM.

Regarding `CC(=O)NCCNCc1cccc(-c2nc3cc(C)ccc3[nH]2)c1` [Compound 34], the IC50 lay within 1 to 100 nM.

For `CC(=O)NCCNCc1cccc(-c2nc3c(F)c(-c4ccccc4)ccc3[nH]2)c1` [Compound 36], the IC50 was in the range of 1 to 100 nM. Same read-out and setting: with `CC(=O)NCCNCc1cccc(-c2nc3c(C)c(-c4ccccc4)ccn3n2)c1` [Compound 50] the figure was 100 to 1000 nM; with `CC(=O)NCCNCc1cccc(-c2nc3c(Cl)c(-c4ccccc4)ccc3[nH]2)c1` [Compound 17], 1 to 100 nM; with `Cc1c(-c2ccccc2)ccc2[nH]c(-c3ccc(CN4CCCC[C@H]4C(=O)O)cc3)nc12` [Compound 13], 1 to 100 nM. On the same count and under the same terms, with `CCc1c(-c2ccccc2)ccc2[nH]c(-c3cccc(CNCCNC(C)=O)c3)nc12` [Compound 56] the figure was 1 to 100 nM. As to `CC(=O)NCCNCc1cccc(-c2nc3c(O)c(O)ccc3[nH]2)c1` [Compound 60], the IC50 was 1 to 100 nM. The same measure, in the same setting: as for `Cc1c(-c2ccccc2)ccc2[nH]c(-c3cccc(COCCN)c3)nc12` [Compound 40], the figure is 100 to 1000 nM.

Consider `Cc1c(-c2ccccc2)ccc2[nH]c(-c3ccc(CN[C@H](CO)C(=O)O)cc3)nc12` [Compound 14], for which the half-inhibitory concentration (IC50) lay in the range of 100 to 1000 nM. The same measure, in the same setting: as for `COc1cc2cc(-c3cccc(CNCCNC(C)=O)c3)cn2cn1` [Compound 46], the figure is 1 to 100 nM; as for `CC(=O)NCCNC(=O)c1cccc(-c2nc3c(C)c(-c4ccccc4)ccc3[nH]2)c1` [Compound 30], 1 to 100 nM. Still for that read-out and setting: with `CC(=O)NCCNCc1cccc(-c2nc3cc(CO)ccn3n2)c1` [Compound 49] the figure was 100 to 1000 nM; with `COc1cccc(-c2nc3c(C)c(-c4ccccc4)ccc3[nH]2)c1` [Compound 19], 100 to 1000 nM. The same measure, in the same setting: as for `Cc1c(-c2ccccc2)ccc2nc(-c3cccc(CNCCO)c3)cn12` [Compound 27], the figure is 1 to 100 nM; as for `Cc1c(-c2ccccc2)ccc2nc(-c3cccc(CNCCN)c3)[nH]c12` [Compound 7], 1 to 100 nM. Take `Cc1c(-c2ccccc2)ccc2[nH]c(-c3cccc(CNC[C@@H]4CCNC4=O)c3)nc12` [Compound 9]: the IC50 was 1 to 100 nM. On the same count and under the same terms, as for `Cc1c(-c2ccccc2)ccc2[nH]c(-c3cccc(CNC[C@@H](O)CC(=O)O)c3)nc12` [Compound 6], the figure is 1 to 100 nM; as for `CC(=O)NCCNCc1cccc(-c2cn3ccc(-c4ccccc4)nc3n2)c1` [Compound 47], 1 to 100 nM.

As for `Cc1c(-c2ccccc2)ccc2[nH]c(-c3ccc(CNCCO)c(OCc4cccnc4)c3)nc12` [Compound 22], the IC50 fell in the range of 1 to 100 nM. For `CC(=O)NCCNCc1cccc(-c2nc3ccc(Br)c(C)c3[nH]2)c1` [Compound 28], the IC50 is 1 to 100 nM. On the same count and under the same terms, with `CC(=O)NCCNCc1cccc(-c2nc3c(CO)c(-c4ccccc4)ccc3[nH]2)c1` [Compound 58] the figure was 100 to 1000 nM; with `CC(=O)NCCNCc1cccc(-c2cc3ccncn3c2)c1` [Compound 45], 1 to 100 nM. Same read-out and setting: with `CC(=O)NCCNCc1cccc(-c2nc3c(O)cccc3[nH]2)c1` [Compound 59] the figure was 1 to 100 nM; with `Cc1c(-c2ccccc2)ccc2nc(-c3ccc(CNCCO)cc3)[nH]c12` [Compound 12], 100 to 1000 nM.
